Where two headings read alike, the source gives them in different places.
Target: T1, ATR kinase (full-length ATR) (Homo sapiens, UniProt Q13535)
T1 construct: Assays were carried out at 25° C. in the presence of 5 nM full-length ATR
Assay: ATR Inhibition Assay (radioactive-phosphate incorporation)
Assay type: biochemical
How it was run: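 Radiometric 33P filter assay with 5 nM full-length ATR in 50 mM Tris/HCl pH 7.5, 10 mM MgCl2, 1 mM DTT at 25 °C. Final 10 μM [γ-33P]ATP and 800 μM peptide; 10 min compound preincubation, ATP start, stopped at 24 h with phosphoric acid/ATP. Ki(app) from non-linear regression of background-corrected initial rates.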

[1] = Ki(app), 5 nM full-length ATR, 10 μM ATP, 800 μM target peptide, 25° C., given as numeric lower bound without unit, read-out: ATR Inhibition Ki
[2] = Ki(app), 5 nM full-length ATR, 10 μM ATP, 800 μM target peptide, 25° C., class symbols, read-out: ATR Inhibition Ki

T1 sequence (Q13535 whole entry): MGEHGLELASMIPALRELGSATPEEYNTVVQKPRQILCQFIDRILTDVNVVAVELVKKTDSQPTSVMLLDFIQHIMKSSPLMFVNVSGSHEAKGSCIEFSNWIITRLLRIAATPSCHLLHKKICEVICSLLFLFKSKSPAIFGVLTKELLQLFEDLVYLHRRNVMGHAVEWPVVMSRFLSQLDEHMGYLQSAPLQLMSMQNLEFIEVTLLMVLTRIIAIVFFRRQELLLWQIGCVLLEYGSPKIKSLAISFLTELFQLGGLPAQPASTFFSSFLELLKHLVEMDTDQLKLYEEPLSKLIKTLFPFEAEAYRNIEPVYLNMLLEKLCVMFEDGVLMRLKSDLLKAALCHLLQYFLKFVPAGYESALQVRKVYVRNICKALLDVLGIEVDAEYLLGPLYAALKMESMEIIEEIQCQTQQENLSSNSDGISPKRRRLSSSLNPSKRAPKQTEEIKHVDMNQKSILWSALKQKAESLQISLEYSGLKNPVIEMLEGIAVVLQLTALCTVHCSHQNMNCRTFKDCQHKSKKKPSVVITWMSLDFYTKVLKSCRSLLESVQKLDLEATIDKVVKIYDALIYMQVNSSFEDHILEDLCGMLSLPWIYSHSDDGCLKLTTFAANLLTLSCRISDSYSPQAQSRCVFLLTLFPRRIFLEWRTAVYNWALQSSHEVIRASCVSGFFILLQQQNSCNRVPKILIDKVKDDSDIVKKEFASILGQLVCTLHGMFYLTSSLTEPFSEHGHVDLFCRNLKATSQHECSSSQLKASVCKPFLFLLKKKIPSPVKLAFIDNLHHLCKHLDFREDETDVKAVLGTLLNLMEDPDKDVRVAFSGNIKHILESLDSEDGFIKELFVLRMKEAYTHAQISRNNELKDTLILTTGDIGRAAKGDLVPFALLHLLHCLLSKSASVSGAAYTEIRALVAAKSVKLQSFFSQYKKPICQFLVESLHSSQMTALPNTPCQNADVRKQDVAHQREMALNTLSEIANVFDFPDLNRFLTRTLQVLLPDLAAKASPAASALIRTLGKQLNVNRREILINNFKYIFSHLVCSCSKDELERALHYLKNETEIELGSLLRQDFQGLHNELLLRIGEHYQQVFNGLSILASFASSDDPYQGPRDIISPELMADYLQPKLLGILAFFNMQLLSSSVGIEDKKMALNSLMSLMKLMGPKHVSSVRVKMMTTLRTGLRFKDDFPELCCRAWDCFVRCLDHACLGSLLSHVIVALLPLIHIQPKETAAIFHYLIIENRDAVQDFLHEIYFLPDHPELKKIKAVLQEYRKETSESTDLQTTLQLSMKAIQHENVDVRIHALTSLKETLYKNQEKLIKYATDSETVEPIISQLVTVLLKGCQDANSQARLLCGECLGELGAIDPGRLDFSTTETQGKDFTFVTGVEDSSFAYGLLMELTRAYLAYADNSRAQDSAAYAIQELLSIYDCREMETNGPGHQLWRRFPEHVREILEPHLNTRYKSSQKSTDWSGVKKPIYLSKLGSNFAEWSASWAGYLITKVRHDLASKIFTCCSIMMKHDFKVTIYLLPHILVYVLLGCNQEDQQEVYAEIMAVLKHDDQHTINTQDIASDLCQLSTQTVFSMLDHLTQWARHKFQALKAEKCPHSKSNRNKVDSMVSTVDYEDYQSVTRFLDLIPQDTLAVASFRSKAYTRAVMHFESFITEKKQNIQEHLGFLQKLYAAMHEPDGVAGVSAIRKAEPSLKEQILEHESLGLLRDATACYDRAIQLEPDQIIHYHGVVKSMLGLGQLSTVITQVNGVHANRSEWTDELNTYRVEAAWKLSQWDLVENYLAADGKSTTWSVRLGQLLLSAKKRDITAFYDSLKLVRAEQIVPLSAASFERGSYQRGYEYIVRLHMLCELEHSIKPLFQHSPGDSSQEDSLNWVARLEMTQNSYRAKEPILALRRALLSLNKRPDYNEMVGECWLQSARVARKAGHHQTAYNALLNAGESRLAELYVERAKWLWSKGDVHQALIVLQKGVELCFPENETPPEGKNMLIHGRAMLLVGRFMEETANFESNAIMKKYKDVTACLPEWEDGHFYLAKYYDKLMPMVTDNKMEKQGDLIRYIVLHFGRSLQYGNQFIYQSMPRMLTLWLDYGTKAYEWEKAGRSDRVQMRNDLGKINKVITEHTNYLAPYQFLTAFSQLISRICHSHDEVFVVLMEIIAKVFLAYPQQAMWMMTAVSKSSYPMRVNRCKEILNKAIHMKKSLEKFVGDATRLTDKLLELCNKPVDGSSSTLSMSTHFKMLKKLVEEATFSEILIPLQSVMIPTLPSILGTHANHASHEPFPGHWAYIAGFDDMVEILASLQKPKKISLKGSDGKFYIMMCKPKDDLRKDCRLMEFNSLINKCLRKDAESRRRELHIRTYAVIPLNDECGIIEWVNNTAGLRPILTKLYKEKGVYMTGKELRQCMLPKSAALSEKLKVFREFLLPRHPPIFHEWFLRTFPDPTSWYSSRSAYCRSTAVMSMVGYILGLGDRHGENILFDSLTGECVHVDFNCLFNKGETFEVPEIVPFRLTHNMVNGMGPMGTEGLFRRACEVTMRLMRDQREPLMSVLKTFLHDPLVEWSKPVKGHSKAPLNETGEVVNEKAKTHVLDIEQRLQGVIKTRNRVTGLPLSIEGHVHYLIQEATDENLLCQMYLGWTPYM

Compound | Ki [1] [nM] | Ki [2] [nM] | also measured
CC(C)S(=O)(=O)c1ccc(-c2cnc3[nH]cc(C(=O)NC4CN(C(=O)OC(C)(C)C)C4)c3n2)cc1 [Compound I-111, tert-butyl 3-[[2-(4-isopropylsulfonylphenyl)-5H-pyrrolo[2,3-b]pyrazine-7-carbonyl]amino]azetidine-1-carboxylate] | > 250 | – | –
CCC[C@@H](CO)NC(=O)c1c[nH]c2ncc(-c3ccc(S(=O)(=O)C(C)C)cc3)nc12 [Compound I-112, N-[(1S)-1-(hydroxymethyl)butyl]-2-(4-isopropylsulfonylphenyl)-5H-pyrrolo[2,3-b]pyrazine-7-carboxamide] | – | < 100 | –
CC(C)S(=O)(=O)c1ccc(-c2cnc3[nH]cc(C(=O)NC4(CO)CC4)c3n2)cc1 [Compound I-113, N-[1-(hydroxymethyl)cyclopropyl]-2-(4-isopropylsulfonylphenyl)-5H-pyrrolo[2,3-b]pyrazine-7-carboxamide] | > 1000 | – | –
CC(C)S(=O)(=O)c1ccc(-c2cnc3[nH]cc(C(=O)N4CCN(C)CC4)c3n2)cc1 [Compound I-114, [2-(4-isopropylsulfonylphenyl)-5H-pyrrolo[2,3-b]pyrazin-7-yl]-(4-methylpiperazin-1-yl)methanone] | – | 500 to 5000 | –
CC(C)S(=O)(=O)c1ccc(-c2cnc3[nH]cc(C(=O)N4CCCCC4CO)c3n2)cc1 (stereo not drawn) [Compound I-115, [2-(hydroxymethyl)-1-piperidyl]-[2-(4-isopropylsulfonylphenyl)-5H-pyrrolo[2,3-b]pyrazin-7-yl]methanone] | – | 500 to 5000 | –
CC(C)S(=O)(=O)c1ccc(-c2cnc3[nH]cc(C(=O)N4CC5CCC(C4)O5)c3n2)cc1 [Compound I-116, [2-(4-isopropylsulfonylphenyl)-5H-pyrrolo[2,3-b]pyrazin-7-yl]-(8-oxa-3-azabicyclo[3.2.1]octan-3-yl)methanone] | > 1000 | – | –
CC[C@@H](CO)NC(=O)c1c[nH]c2ncc(-c3ccc(S(=O)(=O)C(C)C)cc3)nc12 [Compound I-117, N-[(1S)-1-(hydroxymethyl)propyl]-2-(4-isopropylsulfonylphenyl)-5H-pyrrolo[2,3-b]pyrazine-7-carboxamide] | – | 100 to 500 | –
CC(C)S(=O)(=O)c1ccc(-c2cnc3[nH]cc(C(=O)NC4CCOC4)c3n2)cc1 (stereo not drawn) [Compound I-118, 2-(4-isopropylsulfonylphenyl)-N-tetrahydrofuran-3-yl-5H-pyrrolo[2,3-b]pyrazine-7-carboxamide] | – | 100 to 500 | –
COCCNC(=O)c1c[nH]c2ncc(-c3ccc(S(=O)(=O)C(C)C)cc3)nc12 [Compound I-119, 2-(4-isopropylsulfonylphenyl)-N-(2-methoxyethyl)-5H-pyrrolo[2,3-b]pyrazine-7-carboxamide] | – | 100 to 500 | –
CC(C)S(=O)(=O)c1ccc(-c2cnc3[nH]cc(C(=O)N4CCOCC4)c3n2)cc1 [Compound I-120, [2-(4-isopropylsulfonylphenyl)-5H-pyrrolo[2,3-b]pyrazin-7-yl]-morpholino-methanone] | > 2500 | – | –
CC(C)S(=O)(=O)c1ccc(-c2cnc3[nH]cc(C(=O)N(CCO)C4CCCCC4)c3n2)cc1 [Compound I-121, N-cyclohexyl-N-(2-hydroxyethyl)-2-(4-isopropylsulfonylphenyl)-5H-pyrrolo[2,3-b]pyrazine-7-carboxamide] | > 1000 | – | –
CC(C)S(=O)(=O)c1ccc(-c2cnc3[nH]cc(C(=O)NC4CNC4)c3n2)cc1 [Compound I-122, N-(azetidin-3-yl)-2-(4-isopropylsulfonylphenyl)-5H-pyrrolo[2,3-b]pyrazine-7-carboxamide] | – | 500 to 5000 | –
CC(C)S(=O)(=O)c1ccc(-c2cnc3[nH]cc(C(=O)N[C@@H](C(N)=O)c4ccccc4)c3n2)cc1 [Compound I-123, N-[(1R)-2-amino-2-oxo-1-phenyl-ethyl]-2-(4-isopropylsulfonylphenyl)-5H-pyrrolo[2,3-b]pyrazine-7-carboxamide] | – | 100 to 500 | –
CC(C)S(=O)(=O)c1ccc(-c2cnc3[nH]cc(C(=O)N[C@H](C(N)=O)c4ccccc4)c3n2)cc1 [Compound I-124, N-[(1S)-2-amino-2-oxo-1-phenyl-ethyl]-2-(4-isopropylsulfonylphenyl)-5H-pyrrolo[2,3-b]pyrazine-7-carboxamide] | – | 100 to 500 | –
CC(C)S(=O)(=O)c1ccc(-c2cnc3[nH]cc(C(=O)NCc4ccc5c(c4)OCO5)c3n2)cc1 [Compound I-125, N-(1,3-benzodioxol-5-ylmethyl)-2-(4-isopropylsulfonylphenyl)-5H-pyrrolo[2,3-b]pyrazine-7-carboxamide] | – | < 100 | –
CC(c1cccc(Cl)c1)N(C)C(=O)c1c[nH]c2ncc(-c3ccc(S(=O)(=O)C(C)C)cc3)nc12 (stereo not drawn) [Compound I-126, N-[1-(3-chlorophenyl)ethyl]-2-(4-isopropylsulfonylphenyl)-N-methyl-5H-pyrrolo[2,3-b]pyrazine-7-carboxamide] | – | < 100 | –
CC(C)S(=O)(=O)c1ccc(-c2cnc3[nH]cc(C(=O)NC4CCC(CO)CC4)c3n2)cc1 (stereo not drawn) [Compound I-127, N-[4-(hydroxymethyl)cyclohexyl]-2-(4-isopropylsulfonylphenyl)-5H-pyrrolo[2,3-b]pyrazine-7-carboxamide] | – | < 100 | –
CC(C)S(=O)(=O)c1ccc(-c2cnc3[nH]cc(C(=O)N4CCC5(CC4)OCCO5)c3n2)cc1 [Compound I-128, 1,4-dioxa-8-azaspiro[4.5]decan-8-yl-[2-(4-isopropylsulfonylphenyl)-5H-pyrrolo[2,3-b]pyrazin-7-yl]methanone] | – | – | Ki: < 100 nM
CC(C)S(=O)(=O)c1ccc(-c2cnc3[nH]cc(C(=O)NCc4ccccc4CO)c3n2)cc1 [Compound I-129, N-[[2-(hydroxymethyl)phenyl]methyl]-2-(4-isopropylsulfonylphenyl)-5H-pyrrolo[2,3-b]pyrazine-7-carboxamide] | – | < 100 | –
CC(C)S(=O)(=O)c1ccc(-c2cnc3[nH]cc(C(=O)N4CCOc5ccccc5C4)c3n2)cc1 [Compound I-130, 3,5-dihydro-2H-1,4-benzoxazepin-4-yl-[2-(4-isopropylsulfonylphenyl)-5H-pyrrolo[2,3-b]pyrazin-7-yl]methanone] | > 250 | – | –
CC(C)S(=O)(=O)c1ccc(-c2cnc3[nH]cc(C(=O)N(CC(N)=O)C4CCCC4)c3n2)cc1 [Compound I-131, N-(2-amino-2-oxo-ethyl)-N-cyclopentyl-2-(4-isopropylsulfonylphenyl)-5H-pyrrolo[2,3-b]pyrazine-7-carboxamide] | > 40 | – | –
CC(C)S(=O)(=O)c1ccc(-c2cnc3[nH]cc(C(=O)N4CCN(C(=O)OC(C)(C)C)CC4)c3n2)cc1 [Compound I-132, tert-butyl 4-[2-(4-isopropylsulfonylphenyl)-5H-pyrrolo[2,3-b]pyrazine-7-carbonyl]piperazine-1-carboxylate] | > 2500 | – | –
CC(C)S(=O)(=O)c1ccc(-c2cnc3[nH]cc(C(=O)Nc4cc(C(C)(C)C)on4)c3n2)cc1 [Compound I-133, N-(5-tert-butylisoxazol-3-yl)-2-(4-isopropylsulfonylphenyl)-5H-pyrrolo[2,3-b]pyrazine-7-carboxamide] | > 40 | – | –
CC(C)S(=O)(=O)c1ccc(-c2cnc3[nH]cc(C(=O)N4CCCN(C(=O)OC(C)(C)C)CC4)c3n2)cc1 [Compound I-134, tert-butyl 4-[2-(4-isopropylsulfonylphenyl)-5H-pyrrolo[2,3-b]pyrazine-7-carbonyl]-1,4-diazepane-1-carboxylate] | > 40 | – | –
CC(c1ccc(Cl)cc1)N(C)C(=O)c1c[nH]c2ncc(-c3ccc(S(=O)(=O)C(C)C)cc3)nc12 (stereo not drawn) [Compound I-135, N-[1-(4-chlorophenyl)ethyl]-2-(4-isopropylsulfonylphenyl)-N-methyl-5H-pyrrolo[2,3-b]pyrazine-7-carboxamide] | – | < 100 | –
CC(C)S(=O)(=O)c1ccc(-c2cnc3[nH]cc(C(=O)N4CCCNCC4)c3n2)cc1 [Compound I-136, 1,4-diazepan-1-yl-[2-(4-isopropylsulfonylphenyl)-5H-pyrrolo[2,3-b]pyrazin-7-yl]methanone] | > 250 | – | –
CC(C)S(=O)(=O)c1ccc(-c2cnc3[nH]cc(C(=O)N4CCNCC4)c3n2)cc1 [Compound I-137, [2-(4-isopropylsulfonylphenyl)-5H-pyrrolo[2,3-b]pyrazin-7-yl]-piperazin-1-yl-methanone] | > 250 | – | –

Source: patent US9096602B2, “Substituted pyrrolo[2,3-B]pyrazines as ATR kinase inhibitors” (Vertex Pharmaceuticals Incorporated, priority 2011, dated 2015)
